Measurements taken from PMC9377102, “Toxicity and toxicokinetics of the ethanol extract of Zuojin formula” (BMC Complementary Medicine and Therapies, 2022).
Like-named read-outs stand apart in the source and are kept apart here.

Key:
[1] = Toxicokinetics test in the satellite groups (UPLC-MS/MS of rat plasma); format: in vivo; details: for AUC(0-t) / Cmax / Tmax / half-life: SD, rat, plasma, po; for half-life: read-out: T1/2 mean (converted)
Procedure: SD rats (5 ~ 6 weeks, 3/group/sex) were randomly allocated to three treatment groups and given the same dosage as those in the repeated toxicity experiment for 28 days. […] Carbamazepine was chosen as the internal standard (IS). The blood samples were centrifuged to obtain plasma. Then, 300 μL of acetonitrile containing 40 ng of IS was added to 100 μL of plasma. After vortexing for 1 min, the mixture was centrifuged at 17,000 rpm for 15 min at 4 °C. The supernatant of each sample was injected into a UPLC–MS/MS system for determination. The injection volume was 1 μL. UPLC–MS analysis was performed on a Thermo Fisher Scientific Ultimate 3000 UPLC system (San Jose, USA) and an API 4000 QTRAP mass spectrometer (Foster City, USA) equipped with an ESI source. The mobile phase consisted of 2 solvents: (A) water containing 0.1% formic acid and (B) 100% acetonitrile. For MS, multiple reaction monitoring (MRM) in positive ion mode was used as the scanning mode for the main components and IS in the plasma samples. The dwell time (DT), collision energy (CE), quadrupole 1 pre-rod bias (Q1) and quadrupole 3 pre-rod bias (Q3) are listed in Table 3.

[2] = tested on: CYP3A4, CYP1A2 and CYP2D6; details: cited from earlier work
[3] = female, female rats, Day 1, highest dose (berberine 72.08, epiberberine 7.42, coptisine 7.42, palmatine 18.26, jatrorrhizine 2.80, columbamine 5.93 mg/kg)
[4] = female, female rats, Day 1, middle dose (berberine 24.03, epiberberine 2.47, coptisine 2.47, palmatine 6.09, jatrorrhizine 0.93, columbamine 1.98 mg/kg)
[5] = female, female rats, Day 28, highest dose (berberine 72.08, epiberberine 7.42, coptisine 7.42, palmatine 18.26, jatrorrhizine 2.80, columbamine 5.93 mg/kg)
[6] = female, female rats, Day 28, lowest dose (berberine 8.01, epiberberine 0.82, coptisine 1.38, palmatine 2.03, jatrorrhizine 0.31, columbamine 0.66 mg/kg)
[7] = female, female rats, Day 28, middle dose (berberine 24.03, epiberberine 2.47, coptisine 2.47, palmatine 6.09, jatrorrhizine 0.93, columbamine 1.98 mg/kg)
[8] = male, male rats, Day 1, lowest dose (berberine 8.01, epiberberine 0.82, coptisine 1.38, palmatine 2.03, jatrorrhizine 0.31, columbamine 0.66 mg/kg)
[9] = male, male rats, Day 1, middle dose (berberine 24.03, epiberberine 2.47, coptisine 2.47, palmatine 6.09, jatrorrhizine 0.93, columbamine 1.98 mg/kg)
[10] = male, male rats, Day 28, highest dose (berberine 72.08, epiberberine 7.42, coptisine 7.42, palmatine 18.26, jatrorrhizine 2.80, columbamine 5.93 mg/kg)
[11] = male, male rats, Day 28, lowest dose (berberine 8.01, epiberberine 0.82, coptisine 1.38, palmatine 2.03, jatrorrhizine 0.31, columbamine 0.66 mg/kg)
[12] = male, male rats, Day 28, middle dose (berberine 24.03, epiberberine 2.47, coptisine 2.47, palmatine 6.09, jatrorrhizine 0.93, columbamine 1.98 mg/kg)

COc1cc2c(cc1O)CC[n+]1cc3c(OC)c(OC)ccc3cc1-2 [jatrorrhizine]
AUC(0-t) ([1]; female, 0.4 g/kg, female rats, Day 1, low dose TAZF 0.4 g/kg by gavage, read-out: AUC0-t): 25.6 ± 30 ng·h/mL | Cmax ([1]; female, 0.4 g/kg, female rats, Day 1, low dose TAZF 0.4 g/kg by gavage, read-out: Cmax): 11 ± 7.79 ng/mL | AUC(0-t) ([1]; female, 0.4 g/kg, female rats, Day 28, low dose TAZF 0.4 g/kg by gavage, read-out: AUC0-t): 23.9 ± 27.7 ng·h/mL | Cmax ([1]; female, 0.4 g/kg, female rats, Day 28, low dose TAZF 0.4 g/kg by gavage, read-out: Cmax): 11.2 ± 15 ng/mL | AUC(0-t) ([1]; female, 3.7 g/kg, female rats, Day 1, high dose TAZF 3.7 g/kg by gavage, read-out: AUC0-t): 22.1 ± 4.83 ng·h/mL | Cmax ([1]; female, 3.7 g/kg, female rats, Day 1, high dose TAZF 3.7 g/kg by gavage, read-out: Cmax): 14.8 ± 10.7 ng/mL | AUC(0-t) ([1]; female, 3.7 g/kg, female rats, Day 28, high dose TAZF 3.7 g/kg by gavage, read-out: AUC0-t): 11.4 ± 1.79 ng·h/mL | Cmax ([1]; female, 3.7 g/kg, female rats, Day 28, high dose TAZF 3.7 g/kg by gavage, read-out: Cmax): 2.08 ± 0.41 ng/mL | Tmax [1, 3]: 0.5 h | AUC(0-t) ([1]; female, female rats, Day 1, highest dose (berberine 72.08, epiberberine 7.42, coptisine 7.42, palmatine 18.26, jatrorrhizine 2.80, columbamine 5.93 mg/kg), read-out: AUC0-t mean): 22.1 ng·h/mL | Cmax ([1]; female, female rats, Day 1, highest dose (berberine 72.08, epiberberine 7.42, coptisine 7.42, palmatine 18.26, jatrorrhizine 2.80, columbamine 5.93 mg/kg), read-out: Cmax mean): 14.8 ng/mL | half-life [1, 3]: 3.96 h | AUC(0-t) ([1]; female, female rats, Day 1, lowest dose (berberine 8.01, epiberberine 0.82, coptisine 1.38, palmatine 2.03, jatrorrhizine 0.31, columbamine 0.66 mg/kg), read-out: AUC0-t mean): 25.6 ng·h/mL | Cmax ([1]; female, female rats, Day 1, lowest dose (berberine 8.01, epiberberine 0.82, coptisine 1.38, palmatine 2.03, jatrorrhizine 0.31, columbamine 0.66 mg/kg), read-out: Cmax mean): 11 ng/mL | half-life ([1]; female, female rats, Day 1, lowest dose (berberine 8.01, epiberberine 0.82, coptisine 1.38, palmatine 2.03, jatrorrhizine 0.31, columbamine 0.66 mg/kg)): 2.64 h | Tmax [1, 4]: 0.83 h | AUC(0-t) ([1]; female, female rats, Day 1, middle dose (berberine 24.03, epiberberine 2.47, coptisine 2.47, palmatine 6.09, jatrorrhizine 0.93, columbamine 1.98 mg/kg), read-out: AUC0-t mean): 19.9 ng·h/mL | Cmax ([1]; female, female rats, Day 1, middle dose (berberine 24.03, epiberberine 2.47, coptisine 2.47, palmatine 6.09, jatrorrhizine 0.93, columbamine 1.98 mg/kg), read-out: Cmax mean): 14.6 ng/mL | half-life [1, 4]: 3.57 h | Tmax [1, 5]: 1.33 h | AUC(0-t) ([1]; female, female rats, Day 28, highest dose (berberine 72.08, epiberberine 7.42, coptisine 7.42, palmatine 18.26, jatrorrhizine 2.80, columbamine 5.93 mg/kg), read-out: AUC0-t mean): 11.4 ng·h/mL | Cmax ([1]; female, female rats, Day 28, highest dose (berberine 72.08, epiberberine 7.42, coptisine 7.42, palmatine 18.26, jatrorrhizine 2.80, columbamine 5.93 mg/kg), read-out: Cmax mean): 2.08 ng/mL | half-life [1, 5]: 4.98 h | Tmax [1, 6]: 4.17 h | AUC(0-t) ([1]; female, female rats, Day 28, lowest dose (berberine 8.01, epiberberine 0.82, coptisine 1.38, palmatine 2.03, jatrorrhizine 0.31, columbamine 0.66 mg/kg), read-out: AUC0-t mean): 23.9 ng·h/mL | Cmax ([1]; female, female rats, Day 28, lowest dose (berberine 8.01, epiberberine 0.82, coptisine 1.38, palmatine 2.03, jatrorrhizine 0.31, columbamine 0.66 mg/kg), read-out: Cmax mean): 11.2 ng/mL | half-life [1, 6]: 3.39 h | Tmax [1, 7]: 1 h | AUC(0-t) ([1]; female, female rats, Day 28, middle dose (berberine 24.03, epiberberine 2.47, coptisine 2.47, palmatine 6.09, jatrorrhizine 0.93, columbamine 1.98 mg/kg), read-out: AUC0-t mean): 3.87 ng·h/mL | Cmax ([1]; female, female rats, Day 28, middle dose (berberine 24.03, epiberberine 2.47, coptisine 2.47, palmatine 6.09, jatrorrhizine 0.93, columbamine 1.98 mg/kg), read-out: Cmax mean): 1.29 ng/mL | half-life [1, 7]: 5.33 h | T1/2 mean ([1]; male rats, Day 1, highest dose (berberine 72.08, epiberberine 7.42, coptisine 7.42, palmatine 18.26, jatrorrhizine 2.80, columbamine 5.93 mg/kg)): 9.68 h | AUC(0-t) ([1]; male, 0.4 g/kg, male rats, Day 1, low dose TAZF 0.4 g/kg by gavage, read-out: AUC0-t): 52 ± 20.4 ng·h/mL | Cmax ([1]; male, 0.4 g/kg, male rats, Day 1, low dose TAZF 0.4 g/kg by gavage, read-out: Cmax): 11.8 ± 10.8 ng/mL | AUC(0-t) ([1]; male, 0.4 g/kg, male rats, Day 28, low dose TAZF 0.4 g/kg by gavage, read-out: AUC0-t): 8.62 ± 3.21 ng·h/mL | Cmax ([1]; male, 0.4 g/kg, male rats, Day 28, low dose TAZF 0.4 g/kg by gavage, read-out: Cmax): 16.4 ± 16 ng/mL | AUC(0-t) ([1]; male, 3.7 g/kg, male rats, Day 1, high dose TAZF 3.7 g/kg by gavage, read-out: AUC0-t): 101 ± 35.3 ng·h/mL | Cmax ([1]; male, 3.7 g/kg, male rats, Day 1, high dose TAZF 3.7 g/kg by gavage, read-out: Cmax): 17.7 ± 11 ng/mL | AUC(0-t) ([1]; male, 3.7 g/kg, male rats, Day 28, high dose TAZF 3.7 g/kg by gavage, read-out: AUC0-t): 25.6 ± 6.74 ng·h/mL | Cmax ([1]; male, 3.7 g/kg, male rats, Day 28, high dose TAZF 3.7 g/kg by gavage, read-out: Cmax): 7.97 ± 7.64 ng/mL | Tmax ([1]; male, male rats, Day 1, highest dose (berberine 72.08, epiberberine 7.42, coptisine 7.42, palmatine 18.26, jatrorrhizine 2.80, columbamine 5.93 mg/kg)): 4 h | AUC(0-t) ([1]; male, male rats, Day 1, highest dose (berberine 72.08, epiberberine 7.42, coptisine 7.42, palmatine 18.26, jatrorrhizine 2.80, columbamine 5.93 mg/kg), read-out: AUC0-t mean): 101 ng·h/mL | Cmax ([1]; male, male rats, Day 1, highest dose (berberine 72.08, epiberberine 7.42, coptisine 7.42, palmatine 18.26, jatrorrhizine 2.80, columbamine 5.93 mg/kg), read-out: Cmax mean): 17.7 ng/mL | Tmax [1, 8]: 10 h | AUC(0-t) ([1]; male, male rats, Day 1, lowest dose (berberine 8.01, epiberberine 0.82, coptisine 1.38, palmatine 2.03, jatrorrhizine 0.31, columbamine 0.66 mg/kg), read-out: AUC0-t mean): 52 ng·h/mL | Cmax ([1]; male, male rats, Day 1, lowest dose (berberine 8.01, epiberberine 0.82, coptisine 1.38, palmatine 2.03, jatrorrhizine 0.31, columbamine 0.66 mg/kg), read-out: Cmax mean): 11.8 ng/mL | half-life [1, 8]: 52.9 h | Tmax [1, 9]: 1.83 h | AUC(0-t) ([1]; male, male rats, Day 1, middle dose (berberine 24.03, epiberberine 2.47, coptisine 2.47, palmatine 6.09, jatrorrhizine 0.93, columbamine 1.98 mg/kg), read-out: AUC0-t mean): 74.5 ng·h/mL | Cmax ([1]; male, male rats, Day 1, middle dose (berberine 24.03, epiberberine 2.47, coptisine 2.47, palmatine 6.09, jatrorrhizine 0.93, columbamine 1.98 mg/kg), read-out: Cmax mean): 15.4 ng/mL | half-life [1, 9]: 68 h | Tmax [1, 10]: 1.17 h | AUC(0-t) ([1]; male, male rats, Day 28, highest dose (berberine 72.08, epiberberine 7.42, coptisine 7.42, palmatine 18.26, jatrorrhizine 2.80, columbamine 5.93 mg/kg), read-out: AUC0-t mean): 25.6 ng·h/mL | Cmax ([1]; male, male rats, Day 28, highest dose (berberine 72.08, epiberberine 7.42, coptisine 7.42, palmatine 18.26, jatrorrhizine 2.80, columbamine 5.93 mg/kg), read-out: Cmax mean): 7.97 ng/mL | half-life [1, 10]: 4.48 h | Tmax [1, 11]: 0.83 h | AUC(0-t) ([1]; male, male rats, Day 28, lowest dose (berberine 8.01, epiberberine 0.82, coptisine 1.38, palmatine 2.03, jatrorrhizine 0.31, columbamine 0.66 mg/kg), read-out: AUC0-t mean): 8.62 ng·h/mL | Cmax ([1]; male, male rats, Day 28, lowest dose (berberine 8.01, epiberberine 0.82, coptisine 1.38, palmatine 2.03, jatrorrhizine 0.31, columbamine 0.66 mg/kg), read-out: Cmax mean): 16.4 ng/mL | half-life [1, 11]: 11.1 h | Tmax [1, 12]: 12 h | AUC(0-t) ([1]; male, male rats, Day 28, middle dose (berberine 24.03, epiberberine 2.47, coptisine 2.47, palmatine 6.09, jatrorrhizine 0.93, columbamine 1.98 mg/kg), read-out: AUC0-t mean): 33.3 ng·h/mL | Cmax ([1]; male, male rats, Day 28, middle dose (berberine 24.03, epiberberine 2.47, coptisine 2.47, palmatine 6.09, jatrorrhizine 0.93, columbamine 1.98 mg/kg), read-out: Cmax mean): 7.78 ng/mL | half-life [1, 12]: 2.72 h | Systemic exposure after 28 days of administration vs single administration ([1]; rats, oral TAZF): much lower | Metabolism by CYP3A4, CYP1A2 and CYP2D6 [2]: metabolized
